In patent US9957269B2, “S-imino-S-oxo iminothiazine compounds as bace inhibitors, compositions, and their use” (Merck Sharp & Dohme Corp., priority 2014, dated 2018) one finds Ki data, which are given here for eight compounds.

For assay [1], the target named is T1, purified human autoBACE-2 (Homo sapiens, UniProt Q9Y5Z0).
T1 sequence (Q9Y5Z0 63-473 limits assumed): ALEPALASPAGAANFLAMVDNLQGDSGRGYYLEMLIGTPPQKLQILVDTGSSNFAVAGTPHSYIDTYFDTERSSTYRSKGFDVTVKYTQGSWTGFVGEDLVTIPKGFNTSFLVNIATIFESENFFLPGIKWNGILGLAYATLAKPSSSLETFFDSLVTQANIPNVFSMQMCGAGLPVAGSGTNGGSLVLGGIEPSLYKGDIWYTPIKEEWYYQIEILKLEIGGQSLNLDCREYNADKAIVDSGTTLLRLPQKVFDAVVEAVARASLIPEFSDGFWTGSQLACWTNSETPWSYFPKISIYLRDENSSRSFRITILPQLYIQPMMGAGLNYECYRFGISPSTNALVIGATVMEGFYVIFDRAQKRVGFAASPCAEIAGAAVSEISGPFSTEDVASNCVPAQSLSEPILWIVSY
In words: BACE-2 Assay (BACE-HTRF assay). In kind it is biochemical. The settings on record: Ki calculated from IC50 using the Cheng-Prusoff equation; QSY7-EISEVNLDAEFC-Eu-amide substrate 200 nM, pH 5.0; read-out: BACE2 Ki. As to the method: Inhibitor IC50s at purified human autoBACE-2 are determined in a time-resolved endpoint proteolysis assay that measures hydrolysis of the QSY7-EISEVNLDAEFC-Eu-amide FRET peptide substrate (BACE-HTRF assay). BACE-mediated hydrolysis of this peptide results in an increase in relative fluorescence (RFU) at 620 nm after excitation with 320 nm light. Inhibitor compounds, prepared at 3× the desired final concentration in 1× BACE assay buffer (20 mM sodium acetate pH 5.0, 10% glycerol, 0.1% Brij-35) supplemented with 7.5% DMSO are pre-incubated with an equal volume of autoBACE-2 enzyme diluted in 1× BACE assay buffer (final enzyme concentration 1 nM) in black 384-well NUNC plates for 30 minutes at 30° C. […] DMSO is present at 5% final concentration in the assay. Following laser excitation of sample wells at 320 nm, the fluorescence signal at 620 nm is collected for 400 ms following a 50 μs delay on a RUBYstar HTRF plate reader (BMG Labtechnologies). Raw RFU data is normalized to maximum (1.0 nM BACE/DMSO) and minimum (no enzyme/DMSO) RFU values. IC50s are determined by nonlinear regression analysis (sigmoidal dose response, variable slope) of percent inhibition data with minimum and maximum values set to 0 and 100 percent respectively. Similar IC50s are obtained when using raw RFU data. The Ki values are calculated from the IC50 using the Cheng-Prusoff equation.

For assay [2], the target named is soluble human BACE1 catalytic domain (Homo sapiens, UniProt P56817). In words: BACE1 HTRF FRET Assay. The settings on record: Ki calculated from IC50 using the Cheng-Prusoff equation; QSY7-APPswe-Eu substrate 200 nM, pH 5.0. The format is biochemical. An excerpt:
Na^+-Acetate pH 5.0; 1% Brij-35; Glycerol; Dimethyl Sulfoxide (DMSO); Recombinant human soluble BACE1 catalytic domain (>95% pure); APP Swedish mutant peptide substrate (QSY7-APP^swe-Eu): QSY7-EISEVNLDAEFC-Europium-amide.
A homogeneous time-resolved FRET assay can be used to determine IC50 values for inhibitors of the soluble human BACE1 catalytic domain. This assay monitors the increase of 620 nm fluorescence that resulted from BACE1 cleavage of an APPswedish APP^swe mutant peptide FRET substrate (QSY7-EISEVNLDAEFC-Europium-amide). This substrate contains an N-terminal QSY7 moiety that serves as a quencher of the C-terminal Europium fluorophore (620 nm Em). In the absence of enzyme activity, 620 nm fluorescence is low in the assay and increased linearly over 3 hours in the presence of uninhibited BACE1 enzyme. Inhibition of BACE1 cleavage of the QSY7-APP^swe-Eu substrate by inhibitors is manifested as a suppression of 620 nm fluorescence.
Varying concentrations of inhibitors at 3× the final desired concentration in a volume of 10 ul are preincubated with purified human BACE1 catalytic domain (3 nM in 10 μl) for 30 minutes at 30° C. in reaction buffer containing 20 mM Na-Acetate pH 5.0, 10% glycerol, 0.1% Brij-35 and 7.5% DSMO. Reactions are initiated by addition of 10 μl of 600 nM QSY7-APP^swe-Eu substrate (200 nM final) to give a final reaction volume of 30 μl in a 384 well Nunc HTRF plate. The reactions are incubated at 30° C. for 1.5 hours. The 620 nm fluorescence is then read on a Rubystar HTRF plate reader (BMG Labtechnologies) using a 50 millisecond delay followed by a 400 millisecond acquisition time window. Inhibitor IC50 values are derived from non-linear regression analysis of concentration response curves. Ki values are then calculated from IC50 values using the Cheng-Prusoff equation using a previously determined […] of 8 μM for the QSY7-APP^swe-Eu substrate at BACE.

The structures appear in SMILES notation.

soluble human BACE1 catalytic domain, sequence (P56817 75-416 limits assumed): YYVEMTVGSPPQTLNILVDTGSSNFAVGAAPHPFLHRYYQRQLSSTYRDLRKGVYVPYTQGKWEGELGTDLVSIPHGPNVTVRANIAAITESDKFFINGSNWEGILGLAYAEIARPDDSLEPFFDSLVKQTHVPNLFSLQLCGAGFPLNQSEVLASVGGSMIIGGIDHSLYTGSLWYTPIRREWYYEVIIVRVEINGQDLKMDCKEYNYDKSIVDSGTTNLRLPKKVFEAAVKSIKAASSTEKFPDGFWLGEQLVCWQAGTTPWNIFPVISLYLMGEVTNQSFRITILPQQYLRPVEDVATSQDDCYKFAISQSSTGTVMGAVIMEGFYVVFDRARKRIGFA

Take `CN=[S@@]1(=O)C[C@@](C)(c2cc(Nc3ncnc4cc(Br)cnc34)ccc2F)NC(=N)C1(C)C` [Example 8, (1R,5R)-5-(5-((7-bromopyrido[3,2-d]pyrimidin-4-yl)amino)-2-fluorophenyl)-3-imino-2,2,5-trimethyl-1-(methylimino)-1λ^6-thiomorpholine 1-oxide]: the Ki was 1 nM in assay [1] and 3 nM in assay [2]. The corresponding values for `CN=[S@@]1(=O)C[C@@](C)(c2cc(Nc3nccc4nc(OC)cnc34)ccc2F)NC(=N)C1(C)C` [Example 1, (1R,5R)-5-(2-fluoro-5-((2-methoxypyrido[3,4-b]pyrazin-5-yl)amino)phenyl)-3-imino-2,2,5-trimethyl-1-(methylimino)-1λ^6-thiomorpholine 1-oxide] are 16 nM and 14 nM. With `CN=[S@]1(=O)C[C@@](C)(c2cc(Nc3ncnc4cc(Br)cnc34)ccc2F)NC(=N)C1(C)C` [Example 7, (1S,5R)-5-(5-((7-bromopyrido[3,2-d]pyrimidin-4-yl)amino)-2-fluorophenyl)-3-imino-2,2,5-trimethyl-1-(methylimino)-1λ^6-thiomorpholine 1-oxide], in assay [2], the Ki is 10 nM. Consider `CN=[S@@]1(=O)C[C@@](C)(c2cc(Nc3ccnc4cc(OC)cnc34)ccc2F)NC(=N)C1(C)C` [Example 2, (1R,5R)-5-(2-fluoro-5-((7-methoxy-1,5-naphthyridin-4-yl)amino)phenyl)-3-imino-2,2,5-trimethyl-1-(methylimino)-1λ^6-thiomorpholine 1-oxide], for which the Ki is 75 nM in assay [1] and 98 nM in assay [2]. The corresponding values for `CN=[S@]1(=O)C[C@@](C)(c2cc(Nc3nccc4cc(Br)cnc34)ccc2F)NC(=N)C1(C)C` [Example 6, (1S,5R)-5-(5-((3-bromo-1,7-naphthyridin-8-yl)amino)-2-fluorophenyl)-3-imino-2,2,5-trimethyl-1-(methylimino)-1λ^6-thiomorpholine 1-oxide] are 2 nM and 4 nM. In the case of `CN=[S@]1(=O)C[C@@](C)(c2cc(Nc3nccc4cc(OC)cnc34)ccc2F)NC(=N)C1(C)C` [Example 4, (1S,5R)-5-(2-fluoro-5-((3-methoxy-1,7-naphthyridin-8-yl)amino)phenyl)-3-imino-2,2,5-trimethyl-1-(methylimino)-1λ^6-thiomorpholine 1-oxide], the Ki in assay [1] is 25 nM; in assay [2] it was 28 nM. Consider `CN=[S@]1(=O)C[C@@](C)(c2cc(Nc3ccnc4nc(OC)cnc34)ccc2F)NC(=N)C1(C)C` [Example 5, (1S,5R)-5-(2-fluoro-5-((3-methoxypyrido[2,3-b]pyrazin-8-yl)amino)phenyl)-3-imino-2,2,5-trimethyl-1-(methylimino)-1λ^6-thiomorpholine 1-oxide], for which the Ki in assay [2] was 1160 nM. Regarding `CN=[S@]1(=O)C[C@@](C)(c2cc(Nc3ncccc3OC)ccc2F)NC(=N)C1(C)C` [Example 9, (1S,5R)-5-(2-fluoro-5-((3-methoxypyridin-2-yl)amino)phenyl)-3-imino-2,2,5-trimethyl-1-(methylimino)-1λ^6-thiomorpholine 1-oxide], the Ki in assay [1] was 6 nM; in assay [2] it was 24 nM.
